The text below walks through data of PubChem BioAssay (NCI).

Some test systems named below: MALME-3M melanoma; HCC-2998 colon; A498 renal; BT-549 breast; HS 578T breast; SF-539 CNS; T-47D breast; RPMI-8226 leukemia; COLO 205 colon; UACC-257 melanoma.
What all share (test): growth of human tumour cells (NCI), 48 h

Values joined by “and” are separate entries in the source; they are usually repeats but may differ in a detail not shown here. Equal entries are not always repeated.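 Briefly, cells in 96-well plates were exposed to five compound concentrations for 48 h, and endpoints were estimated by linear interpolation. GI50 = concentration required for 50% inhibition of growth. TGI marks complete inhibition of growth.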

On to `COc1cc(-c2nc(SCCC(C)C)nc(Nc3ccc(S(N)(=O)=O)cc3)c2C#N)cc(OC)c1OC`, for which the GI50 in the assay with MALME-3M melanoma is 1.6 µM; in the assay on HCC-2998 colon it was 3.22 µM; in the assay with A498 renal it was 1.89 µM; in the assay on BT-549 breast it was 2.12 µM; with HS 578T breast, 2.21 µM; in the assay with SF-539 CNS, 2.01 µM. The GI50 in the assay on T-47D breast was 2.26 µM; in the assay on RPMI-8226 leukemia, 1.73 µM; in the assay on COLO 205 colon it was 2.06 µM; in the assay on UACC-257 melanoma, 3.9 µM. The TGI with MALME-3M melanoma was 4.14 µM; with HCC-2998 colon it was over 100 µM; with A498 renal, 5.36 µM; with BT-549 breast, 6.3 µM; in the assay on HS 578T breast it was 7.77 µM; with SF-539 CNS, 5.22 µM. Moreover, the TGI with T-47D breast is over 100 µM; in the assay on RPMI-8226 leukemia, 6.79 µM; in the assay with COLO 205 colon, 5.08 µM; with UACC-257 melanoma, over 100 µM.

For the molecule `CCCCCCCc1cc2c3c(nc4ccccc42)C(=O)c2cccnc2-c3n1`, the GI50 is 5.07 µM in the assay on MALME-3M melanoma; 2.93 µM in the assay with HCC-2998 colon; 6.46 µM with A498 renal; 16.2 µM with BT-549 breast; 4.86 µM in the assay on HS 578T breast; 18.8 µM with SF-539 CNS. The GI50 in the assay with T-47D breast is 4.31 µM; in the assay on RPMI-8226 leukemia it was 4.27 µM; with COLO 205 colon it was 5.05 µM; with UACC-257 melanoma, 1.96 µM. Besides, the TGI in the assay with MALME-3M melanoma amounted to 10.9 µM; in the assay on HCC-2998 colon, 7.56 µM; with A498 renal, 17.5 µM; with BT-549 breast, 33.2 µM; in the assay with HS 578T breast, 11.6 µM; in the assay with SF-539 CNS, 34.8 µM. In addition, the TGI with T-47D breast turned out to be 20.7 µM; in the assay on RPMI-8226 leukemia it was 12.6 µM; in the assay on COLO 205 colon, 9.59 µM; in the assay with UACC-257 melanoma, 3.46 µM.

Take `NCCCNCCCCNC(=O)C(O)NC(=O)CCCCCCN=C(N)N` (stereo not given): the GI50 with MALME-3M melanoma was 1920 µM; in the assay with HCC-2998 colon, 2720 µM; with A498 renal, 1500 µM; in the assay on BT-549 breast, 1540 µM; in the assay on HS 578T breast it was 2070 µM; with SF-539 CNS it was over 4070 µM. Further, the GI50 in the assay on T-47D breast is 2130 µM; in the assay with RPMI-8226 leukemia it was 1770 µM; with COLO 205 colon, 1580 µM; with UACC-257 melanoma it was over 4100 µM. The TGI with MALME-3M melanoma was 628 µM and 3050 µM; in the assay on HCC-2998 colon it was over 4260 µM; in the assay on A498 renal it was over 5000 µM; in the assay on BT-549 breast, 750 µM and 4950 µM; with HS 578T breast, 750 µM and 3990 µM; with SF-539 CNS, over 5000 µM. Also, the TGI with T-47D breast was over 5000 µM; in the assay with RPMI-8226 leukemia it was 750 µM and > 3790 µM; with COLO 205 colon, 750 µM and > 5000 µM; with UACC-257 melanoma, over 5000 µM.

On to `Cc1cc(C)c(-n2c(-c3ccc(Br)cc3)cs/c2=N\N=C2C=C(C(C)(C)C)C(=O)C(C(C)(C)C)=C2)c(C)c1`, for which the TGI with MALME-3M melanoma was over 100 µM; with HCC-2998 colon it was over 100 µM; in the assay on A498 renal, 97.7 µM; in the assay on BT-549 breast, over 100 µM; with HS 578T breast it was 62.5 µM; in the assay on SF-539 CNS, over 100 µM. Moreover, the TGI with T-47D breast, in the assay with RPMI-8226 leukemia, with COLO 205 colon and in the assay with UACC-257 melanoma was over 100 µM throughout.

Consider `COc1ccc(-c2ccc(-c3ccc(C(=N)N)o3)o2)cc1`, for which the GI50 in the assay on MALME-3M melanoma was 3.97 µM; in the assay with HCC-2998 colon, 1.58 µM; in the assay with A498 renal, 1.76 µM; with BT-549 breast it was 4.55 µM; in the assay with HS 578T breast, 4.33 µM; with SF-539 CNS it was 1.88 µM. The GI50 in the assay with T-47D breast is 1.53 µM; in the assay with RPMI-8226 leukemia, 2.68 µM; with COLO 205 colon, 1.25 µM; in the assay on UACC-257 melanoma it was 11.1 µM. The TGI turned out to be 19.1 µM in the assay on MALME-3M melanoma; 3.23 µM in the assay on HCC-2998 colon; 7.48 µM in the assay on A498 renal; 16.9 µM with BT-549 breast; 18.4 µM in the assay with HS 578T breast; 3.63 µM in the assay with SF-539 CNS. Besides, the TGI with T-47D breast is 4.07 µM; in the assay with RPMI-8226 leukemia, 7.85 µM; in the assay with COLO 205 colon, 2.94 µM; with UACC-257 melanoma, 24.7 µM.

`Cc1cccc(NC(=O)c2cccc([N+](=O)[O-])c2O)c1C`: the TGI in the assay with MALME-3M melanoma was over 84.2 µM; in the assay on HCC-2998 colon it was over 100 µM; with A498 renal it was over 100 µM; in the assay on BT-549 breast, over 100 µM; in the assay with HS 578T breast, over 100 µM; in the assay on SF-539 CNS, 96.9 µM. Further, the TGI in the assay on T-47D breast is over 100 µM; in the assay with RPMI-8226 leukemia, over 87.3 µM; with COLO 205 colon it was 32.9 µM; with UACC-257 melanoma, over 79.3 µM.

As for `Cc1ccc(O)c(NC(=O)c2ccc(CNc3ccnc(C(F)(F)F)c3)cc2)c1`, the GI50 in the assay with MALME-3M melanoma was 2.53 µM; with HCC-2998 colon, 7.45 µM; with A498 renal, 14.3 µM; in the assay on BT-549 breast it was 3.48 µM; in the assay with HS 578T breast it was 11.2 µM; in the assay with SF-539 CNS, 4.16 µM. Also, the GI50 is 1.74 µM with T-47D breast, 2.64 µM in the assay on RPMI-8226 leukemia, 5.57 µM in the assay on COLO 205 colon and 12.2 µM in the assay on UACC-257 melanoma. The TGI turned out to be 22.1 µM in the assay on MALME-3M melanoma; 23.2 µM with HCC-2998 colon; 37.6 µM in the assay on A498 renal; 28.4 µM with BT-549 breast; 42.8 µM in the assay with HS 578T breast; 20.9 µM with SF-539 CNS. The TGI came out at 17.7 µM with T-47D breast, 11.3 µM with RPMI-8226 leukemia, 20.1 µM in the assay on COLO 205 colon and 48.5 µM in the assay with UACC-257 melanoma.

For the molecule `Cn1cc(-c2ccc(-c3ccc(C4=NC5(CC5)C(=O)N4C[C@@H]4CCN(C(=O)C5CC5)C4)cc3)cc2)cn1`, the GI50 with MALME-3M melanoma was 18.6 µM; in the assay on HCC-2998 colon it was 15.2 µM; with A498 renal, 2.16 µM; with BT-549 breast, 6.09 µM; in the assay with HS 578T breast, 19.2 µM; in the assay with SF-539 CNS, 10.7 µM. For the same molecule, the GI50 was 13.6 µM in the assay with T-47D breast, 0.0883 µM with RPMI-8226 leukemia, 15.6 µM in the assay on COLO 205 colon and 39.3 µM with UACC-257 melanoma. Moreover, the TGI in the assay with MALME-3M melanoma turned out to be 40.9 µM; with HCC-2998 colon, 29.9 µM; in the assay on A498 renal, 23.7 µM; in the assay with BT-549 breast, 26.1 µM; with HS 578T breast, 84.1 µM; in the assay on SF-539 CNS, 32.1 µM. In addition, the TGI in the assay with T-47D breast is over 100 µM; in the assay on RPMI-8226 leukemia, 19.7 µM; in the assay on COLO 205 colon it was 93.5 µM; with UACC-257 melanoma, over 100 µM.

Regarding `COc1cc(Nc2ncc(F)c(Nc3ccc4c(n3)N(COP(=O)(O)O)C(=O)C(C)(C)O4)n2)cc(OC)c1OC`, the GI50 with MALME-3M melanoma was 3 µM and 5.93 µM; in the assay with HCC-2998 colon it was 16.4 µM; with A498 renal it was 0.356 µM and 0.221 µM; with BT-549 breast it was 1.56 µM and 1.57 µM; in the assay with HS 578T breast, 0.538 µM and 0.173 µM; with SF-539 CNS, 0.605 µM and 0.454 µM. Also, the GI50 in the assay with T-47D breast was 2.92 µM and 1.24 µM; in the assay on RPMI-8226 leukemia, 3.55 µM and 4.34 µM; in the assay on COLO 205 colon it was 2.03 µM and 1.31 µM; in the assay on UACC-257 melanoma it was 10.6 µM and 5.57 µM. Moreover, the TGI is 17.8 µM and > 10 µM with MALME-3M melanoma; over 100 µM in the assay with HCC-2998 colon; 1.37 µM and 0.872 µM in the assay on A498 renal; 4.45 µM and 6.5 µM with BT-549 breast; 4.27 µM and 0.59 µM in the assay on HS 578T breast; 1.94 µM and 1.81 µM in the assay on SF-539 CNS. In addition, the TGI with T-47D breast was 26 µM and > 10 µM; with RPMI-8226 leukemia, over 31.3 µM; with COLO 205 colon, 5.37 µM and 3.59 µM; in the assay with UACC-257 melanoma it was over 90.7 µM.

For `C#CCOc1cccc(Nc2ncnc3cc(NC(=O)CCl)ccc23)c1`, the GI50 in the assay with MALME-3M melanoma is 5.21 µM; in the assay with HCC-2998 colon, 8.83 µM; with A498 renal it was 12.7 µM; in the assay with BT-549 breast it was 6.08 µM; with HS 578T breast, 3.61 µM; in the assay with SF-539 CNS, 3.64 µM. Moreover, the GI50 was 9.11 µM with T-47D breast, 3.44 µM with RPMI-8226 leukemia, 5.04 µM with COLO 205 colon and 15.4 µM in the assay with UACC-257 melanoma. The TGI with MALME-3M melanoma stood at 20.5 µM; in the assay with HCC-2998 colon, 22.6 µM; in the assay on A498 renal, 25.9 µM; in the assay with BT-549 breast, 20.3 µM; in the assay with HS 578T breast it was 26.9 µM; in the assay on SF-539 CNS, 15 µM. For the same molecule, the TGI is 32 µM with T-47D breast, 10.4 µM with RPMI-8226 leukemia, 19.8 µM in the assay with COLO 205 colon and 32.3 µM with UACC-257 melanoma.

With `CCNC(=O)O[C@H]1CN[C@H](C#Cc2cc3ncnc(Nc4ccc(OCc5cccc(F)c5)c(Cl)c4)c3s2)C1`, the GI50 in the assay with MALME-3M melanoma was 3.99 µM; with HCC-2998 colon, 4.91 µM; with A498 renal, 1.7 µM; in the assay with BT-549 breast it was 3.89 µM; in the assay on HS 578T breast it was 4.82 µM; in the assay on SF-539 CNS, 5.77 µM. For the same molecule, the GI50 with T-47D breast is 1.49 µM; in the assay with RPMI-8226 leukemia it was 5.41 µM; in the assay with COLO 205 colon, 6.9 µM; in the assay with UACC-257 melanoma, over 22.7 µM. The TGI in the assay on MALME-3M melanoma was 11.7 µM; in the assay on HCC-2998 colon it was 15.5 µM; in the assay on A498 renal it was 11.7 µM; in the assay with BT-549 breast, 9.38 µM; in the assay with HS 578T breast, 24.6 µM; in the assay on SF-539 CNS, over 18.4 µM. For the same molecule, the TGI in the assay with T-47D breast was over 25 µM; in the assay with RPMI-8226 leukemia, over 23.4 µM; in the assay with COLO 205 colon it was over 17.7 µM; with UACC-257 melanoma, over 25 µM.
